pIC50: −log10 of the molar value. Values joined by “and” are separate entries in the source; they are usually repeats but may differ in a detail not shown here. Equal values may be shown once. Where a name gives a salt, the structure may show the parent alone. Values belong to the compound of their own block, whether it stands above or below them.
What was measured:
MCF7 [1] = test: Anticancer activity against human MCF7 cells assessed as cell growth inhibition incubated for 48 hrs by MTS assay; format: functional, cell-based; details: MCF7, 48 h
[2] = Cytotoxicity activity against human CCD-1059Sk cells assessed as cell growth inhibition incubated for 48 hrs by MTS assay; format: toxicity, cell-based
in vitro = details: human, CCD-1059Sk cells and MCF7 cells
Description: Selectivity index, ratio of IC50 for cytotoxicity against CCD-1059Sk cells to IC50 for antiproliferative activity against MCF7 cells

MDA-MB-231 = test: Anticancer activity against human MDA-MB-231 cells assessed as reduction in cell viability measured after 48 hrs at 150 uM by MTT assay relative to control; format: functional
PANC-1 = test: Anticancer activity against human PANC-1 cells assessed as cell growth inhibition incubated for 48 hrs by SRB assay; format: functional; details: Homo sapiens, PANC-1, 48 h
Aromatase = molecular target: T1, Aromatase (Homo sapiens, UniProt P11511)
T1 sequence (P11511 whole entry): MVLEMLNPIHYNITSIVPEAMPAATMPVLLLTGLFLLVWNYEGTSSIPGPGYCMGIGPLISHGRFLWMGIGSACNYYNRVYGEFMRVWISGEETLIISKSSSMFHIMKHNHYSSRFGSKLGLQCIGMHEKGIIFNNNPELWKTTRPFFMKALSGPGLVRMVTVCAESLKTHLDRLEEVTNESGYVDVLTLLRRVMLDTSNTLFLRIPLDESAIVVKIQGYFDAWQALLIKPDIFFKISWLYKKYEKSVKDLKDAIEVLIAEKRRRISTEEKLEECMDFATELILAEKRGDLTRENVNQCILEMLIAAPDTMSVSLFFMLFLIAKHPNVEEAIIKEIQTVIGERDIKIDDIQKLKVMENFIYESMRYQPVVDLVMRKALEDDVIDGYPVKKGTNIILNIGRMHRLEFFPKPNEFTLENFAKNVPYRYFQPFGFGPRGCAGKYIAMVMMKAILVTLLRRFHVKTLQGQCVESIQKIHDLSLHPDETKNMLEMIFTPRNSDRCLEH
Description: Inhibition of human Aromatase

CYP1A = CYP1A (Homo sapiens, UniProt P04798+P05177); test: Inhibtion of CYP1A (unknown origin); format: ADME, protein assay
HeLa = test: Anticancer activity against human HeLa cells assessed as cell growth inhibition measured after 72 hrs by MTT assay; format: functional, cell-based; details: for pIC50: Homo sapiens, HeLa, 72 h, read-out: IC50
A549 = test: Anticancer activity against human A549 cells assessed as cell growth inhibition measured after 72 hrs by MTT assay; format: functional, cell-based
[3] = Anticancer activity against Lung adenocarcinoma cell line assessed as cell growth inhibition measured after 72 hrs by MTT assay; format: functional, cell-based; details: Lung adenocarcinoma cell line, 72 h
HepG2 [4] = test: Anticancer activity against human HepG2 cells assessed as cell growth inhibition incubated for 3 days by MTT assay; format: functional, cell-based; details: HepG2, 72 h
HCT-116 = test: Anticancer activity against human HCT-116 cells assessed as cell growth inhibition; format: functional, cell-based
B16-F10 [5] = test: Anti cancer activity against mouse B16-F10 cells assessed as cell growth inhibition incubated for 40 hrs by Almar Blue stained fluorescence-based assay; format: functional; details: B16-F10, 40 h
B16-F10 [6] = test: Anti cancer activity against mouse B16-F10 cells assessed as cell growth inhibition incubated for 40 hrs by Almar Blue stained fluorescence-based assay relative to control; format: functional
[7] = Anticancer activity against human AZ-AHR cells assessed as cell growth inhibition incubate for 24 hrs by MTT assay; format: functional, cell-based
HT-29 [8] = test: Anticancer activity against human HT-29 cells assessed as cell growth inhibition incubated for 3 days by MTT assay; format: functional, cell-based; details: HT-29, 72 h
MCF7 [9] = test: Anticancer activity against human MCF7 cells assessed as cell growth inhibition incubated for 3 days by MTT assay; format: functional, cell-based; details: MCF7, 72 h
HEK293 = test: Anticancer activity against human HEK293 cells assessed as cell growth inhibition incubated for 3 days by MTT assay; format: functional, cell-based; details: HEK293, 72 h
HT-29 [10] = test: Anticancer activity against human HT-29 cells assessed as cell growth inhibition incubated for 24 hrs by MTT assay; format: functional, cell-based; details: Homo sapiens, HT-29, 24 h
HepG2 [11] = test: Anticancer activity against human HepG2 cells assessed as cell growth inhibition incubated for 24 hrs by MTT assay; format: functional, cell-based; details: HepG2, 24 h
SK-BR-3 = test: Anticancer activity against human SK-BR-3 cells assessed as cell growth inhibition incubated for 24 hrs by MTT assay; format: functional, cell-based; details: SK-BR-3, 24 h
Ishikawa = test: cells; details: Homo sapiens
Description: Anti-tumor activity against human ishikawa cells assessed as anti-estrogenic potential

SMILES: CC(C)(C)C(=O)Oc1ccc(/C=C/c2cc(O)cc(O)c2)cc1
Activity (MDA-MB-231): 7.7%

SMILES: Oc1ccc(/C=C/c2cc(O)cc(OCc3ccccc3)c2)cc1
pIC50 (Aromatase): 5.57 | pIC50 (CYP1A): 6.85 | pIC50 (HeLa): 5.85 | pIC50 (A549; Homo sapiens, A549, 72 h): 4.93 | pIC50 [3]: 5.10

SMILES: CCCC(=O)Oc1ccc(/C=C/c2cc(O)cc(O)c2)cc1
Activity (MDA-MB-231): 14.14%

SMILES: COc1ccc(/C=C/c2cc(OC)c(OC)c(OC)c2)cc1
pIC50 (HCT-116): 5.96

SMILES: COc1cc(/C=C\c2ccc(OC)c(OC)c2)cc(OC)c1 [(Z)-3,4,3',5'-TETRAMETHOXYSTILBENE]
pIC50 (B16-F10 [5]): 6.00 | inhibition (INH) (B16-F10 [6]): 80%

SMILES: COc1cccc2c1C(=O)c1c(O)c3c(c(O)c1C2=O)C[C@@](O)(C(=O)CO)C[C@@H]3O[C@H]1C[C@H](N)[C@H](O)[C@H](C)O1 [DOXORUBICIN HYDROCHLORIDE]
pIC50 (HeLa): 6.32 | pIC50 (A549; Homo sapiens, A549, 72 h): 5.63 | pIC50 [3]: 5.93

SMILES: Oc1cc(O)cc(/C=C/c2ccc(O)c(O)c2)c1 [PICEATANNOL]
pIC50 [7]: 5.35 | pIC50 (HCT-116): 5.30

SMILES: OC[C@H]1O[C@@H](Oc2cc(O)cc(/C=C/c3ccc(O)cc3)c2)[C@H](O)[C@@H](O)[C@@H]1O [PICEID]
pIC50 (HT-29 [8]): 4.74 | pIC50 (MCF7 [9]): 4.42 | pIC50 (HEK293): < 4.00

SMILES: CC(=O)Oc1ccc(/C=C/c2cc(OC(C)=O)cc(OC(C)=O)c2)cc1 [TRIACETYLRESVERATROL]
pIC50 (HeLa): 5.47 | IC50 (HeLa; time 72 hrs): 20140 nM | pIC50 (A549; a549): 5.47 and 5.03 | pIC50 [3]: 5.47

SMILES: COc1ccc(/C=C/c2cc(OC)cc(OC)c2)cc1 [TRISMETHOXYRESVERATROL]
pIC50 (HT-29 [10]): 4.85 | pIC50 (HepG2 [11]): < 4.00 | pIC50 (SK-BR-3): 3.95 | pIC50 (Aromatase): 4.87 | pIC50 (CYP1A): 8.52 | pIC50 (HCT-116): 5.96 | pIC50 (Ishikawa): 4.90

Further lines, with some results ahead:

pIC50 (MCF7 [1]): 4.37
SMILES: COc1cc(/C=N/NC(=O)/C=C/c2ccc(O)c(OC)c2)cc(OC)c1
IC50 at 48 h [2]: 130 µM | selectivity ratio (in vitro): 6.81

GI50 (PANC-1): 64 nM
SMILES: COc1cc(/C=C/c2ccc(OC(=O)CSc3nnc(-c4ccc(C(F)(F)F)cc4)o3)cc2)cc(OC)c1

GI50 (PANC-1): 64 nM
SMILES: COc1cc(/C=C/c2ccc(NC(=O)CSc3nnc(-c4ccc(F)cc4)o3)cc2)cc(OC)c1

GI50 (PANC-1): 64 nM
SMILES: COc1ccc(-c2nnc(SCC(=O)Nc3ccc(/C=C/c4cc(OC)cc(OC)c4)cc3)o2)cc1

GI50 (PANC-1): 64 nM
SMILES: COc1cc(/C=C/c2ccc(NC(=O)CSc3nnc(-c4ccccc4F)o3)cc2)cc(OC)c1

GI50 (PANC-1): 64 nM
SMILES: COc1cc(/C=C/c2ccc(OC(=O)CSc3nnc(-c4ccncc4)o3)cc2)cc(OC)c1

GI50 (PANC-1): 64 nM
SMILES: COc1cc(/C=C/c2ccc(OC(=O)CSc3nnc(-c4cc(OC)c(OC)c(OC)c4)o3)cc2)cc(OC)c1

GI50 (PANC-1): 64 nM
SMILES: COc1cc(/C=C/c2ccc(OC(=O)CSc3nnc(-c4cnccn4)o3)cc2)cc(OC)c1

pIC50 (HepG2 [4]): 4.17
SMILES: CCOc1cc(/C=C/c2ccc(O)c(O)c2)cc(OCC)c1

GI50 (PANC-1): 64 nM
SMILES: COc1cc(/C=C/c2ccc(OC(=O)CSc3nnc(-c4c(F)cccc4F)o3)cc2)cc(OC)c1

GI50 (PANC-1): 64 nM
SMILES: COc1cc(/C=C/c2ccc(NC(=O)CSc3nnc(-c4cccc(C(F)(F)F)c4)o3)cc2)cc(OC)c1

GI50 (PANC-1): 64 nM
SMILES: COc1ccc(-c2nnc(SCC(=O)Oc3ccc(/C=C/c4cc(OC)cc(OC)c4)cc3)o2)cc1

GI50 (PANC-1): 64 nM
SMILES: COc1cc(/C=C/c2ccc(OC(=O)CSc3nnc(-c4ccc(F)cc4)o3)cc2)cc(OC)c1

pIC50 (B16-F10 [5]): 6.00
SMILES: COc1ccc(/C=C\c2ccc(OC)c(OC)c2)cc1 [7Z-3,4,4'-TRIMETHOXYSTILBENE]

pIC50 (HCT-116): 4.60
SMILES: Oc1ccc(/C=C\c2cc(O)cc(O)c2)cc1 [CIS-RESVERATROL]
pIC50 [7]: 4.60

Reference: ChEMBL document CHEMBL5233248, “Resveratrol - A comprehensive review of recent advances in anticancer drug design and development” (Eur J Med Chem, 2020)
